Counter-ions that a name gives are not always drawn.
Legend:
C57BL/6 male mice [1] = assay: DHT-induced alopecia (mouse model of male pattern baldness); format: in vivo; details: DHT pellet (2.5 mg 21 day) implanted subcutaneously; dosed topically once; visually graded for melanogenesis and hair regrowth
Description: (§1) A mouse model of male pattern baldness is used to investigate the effectiveness of the present compounds for growing hair. Agonists for the sonic hedgehog pathway that act by binding and activating Smoothened were tested in a formulation of 50:30:20 PG:EtOH:water or 5:95 DMSO:acetone vehicle. C57BL/6 male mice (48-52 days old on arrival) from Charles River Labs were used on the study. The mice were housed and cared for according to established procedures. Food and water were ad libitum. On Day 0, the mice were shaved on their lower back, an area of ˜1.5 inches×˜2 inches with Wahl clippers using a surgical blade. On day −3, the mice were anesthetized with isoflurane, their back was rinsed with a pad of 70% ethanol, a placebo pellet or a DHT pellet (2.5 mg 21 day pellet) were implanted subcutaneously between the shoulder blades with a 10 gauge trochar. DHT pellet transplantation results in maintenance of existing hair follicles in the resting (telogen) phase. The hole was stapled with a sterile autoclip and the mice were returned to their cage after awaking. The mice were dosed topically once and visually graded daily, except weekends, for melanogenesis and hair regrowth of fur in the dosed area (Table 4).
In the absence of treatment with the present compounds, the follicles remain in telogen rather than following the normal time course of the mouse hair cycle.

C57BL/6 male mice [2] = assay: C57BL/6 hair growth after topical dosing; format: in vivo, mouse; details: dosed topically once on shaved lower back; visually graded for melanogenesis and hair regrowth
Description: as §1

sonic hedgehog pathway [3] = assay: Hedgehog reporter assay (gli-luciferase) in TM3 cells; format: cell-based, mouse; details: TM3 mouse Leydig cells, gli-luciferase reporter; read-out: TM3 Avg. EC50
In short: (§2)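 Stable gli-luciferase reporter lines (mouse TM3; human Daoy and HEPM) switched to 0.5% FBS medium, given compounds at 1-5 μM with or without octyl-modified hedgehog protein (1-5 ng/ml) for 24 hrs. Luminescence read; eleven-point 1:3 dose curves, activation expressed as percentage of plate controls (AMAX).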

sonic hedgehog pathway [4] = assay: Human hedgehog reporter assay Daoy-GliLuc (DGL); format: cell-based; details: Daoy human medulloblastoma cells, gli-luciferase reporter; read-out: Daoy Avg. EC50
In short: as §2

sonic hedgehog pathway [5] = assay: Hedgehog reporter assay (gli-luciferase) in S12 cells; format: cell-based; details: S12 mouse embryonic mesenchymal cells, read-out: S12 Avg. EC50
In short: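 Stable gli-promoter luciferase reporter S12 mouse embryonic mesenchymal cells, switched to 0.5% FBS and treated with compounds (11-point, 1:3 dilutions) with or without octyl-modified hedgehog protein (1-5 ng/ml) for 24 h; luminescence read. AMAX as percent of high control; EC50 for half-maximal activation; >20% AMAX counted active.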

sonic hedgehog pathway [6] = assay: Human hedgehog reporter assay HEPM-GliLuc (HGL); format: cell-based; details: HepM human embryonic palatal mesenchymal cells, gli-luciferase reporter; read-out: HEPM Avg. EC50
In short: as §2

Structure (SMILES) | Androgenetic Alopecia (C57BL/6 male mice [1]) | C57BL/6 Hair Growth (C57BL/6 male mice [2]) | other results
CN[C@H]1CC[C@H](N(Cc2cc(-c3ccccc3)ccc2OC)C(=O)c2sc3ccccc3c2Cl)CC1 | yes | yes | –
CN[C@H]1CC[C@H](N(Cc2cc(-c3ccc(N)nc3)ccc2OC)C(=O)c2sc3cccc(F)c3c2Cl)CC1 [drawing 702] | yes | yes | –
CN[C@H]1CC[C@H](N(Cc2cc(-c3ccc(S(C)(=O)=O)cc3)ccc2OC)C(=O)c2sc3ccccc3c2Cl)CC1 | yes | yes | –
CCOc1ccc(-c2ccc(C#N)cc2)cc1CN(C(=O)c1sc2ccccc2c1Cl)[C@H]1CC[C@H](NC)CC1 | – | yes | –
CN[C@H]1CC[C@H](N(Cc2cc(-c3ccncc3)ccc2OC)C(=O)c2sc3ccccc3c2Cl)CC1 | yes | yes | –
CN[C@H]1CC[C@H](N(Cc2cc(-c3ccc(NS(C)(=O)=O)nc3)ccc2OC)C(=O)c2sc3c(F)ccc(F)c3c2Cl)CC1 | – | yes | –
CN[C@H]1CC[C@H](N(Cc2cc(-c3ccnc(C(=O)N(C)C)c3)ccc2OC)C(=O)c2sc3c(F)ccc(F)c3c2Cl)CC1 | yes | yes | –
CN[C@H]1CC[C@H](N(Cc2cc(-c3ccnc(C(=O)O)c3)ccc2OC)C(=O)c2sc3c(F)ccc(F)c3c2Cl)CC1 | – | no | –
CN[C@H]1CC[C@H](N(Cc2cc(-c3ccc(C(N)=O)cc3)ccc2OC)C(=O)c2sc3c(F)ccc(F)c3c2Cl)CC1 | yes | yes | –
CN[C@H]1CC[C@H](N(Cc2cc(-c3cc(C)nc(C)c3)ccc2OC)C(=O)c2sc3ccccc3c2Cl)CC1 | yes | yes | –
CN[C@H]1CC[C@H](N(Cc2cc(-c3ccnc(C)c3)ccc2OC)C(=O)c2sc3ccccc3c2Cl)CC1 | yes | yes | –
CNC1CCC(N(Cc2cc(-c3ccccn3)ccc2OC)C(=O)c2sc3c(F)ccc(F)c3c2Cl)CC1 (centres unmarked) [Compound 367, 3-Chloro-4,7-difluoro-benzo[b]thiophene-2-carboxylic acid (2-methoxy-5-pyridin-2-yl-benzyl)-(4-methylamino-cyclohexyl)-amide dihydrochloride] | – | – | EC50 (sonic hedgehog pathway [3]): < 50 nM; EC50 (sonic hedgehog pathway [4]): < 50 nM; EC50 (sonic hedgehog pathway [5]): < 50 nM; EC50 (sonic hedgehog pathway [6]): < 50 nM
CCOc1ccc(-c2ccc(C)nc2)cc1CN(C(=O)c1sc2ccccc2c1Cl)[C@H]1CC[C@H](NC)CC1 | – | yes | –
CN[C@H]1CC[C@H](N(Cc2cc(-c3ccnc(C(=O)OC)c3)ccc2OC)C(=O)c2sc3c(F)ccc(F)c3c2Cl)CC1 | yes | yes | –

— US20120245184A1 (Aderans Research Institute, Inc., priority 2006, published 2012)
